ChEMBL document CHEMBL5303573, “Mapping human microbiome drug metabolism by gut bacteria and their genes” (Nature, 2019)
Non-standard residues stand in square brackets, D forms with d. Residues, ends and D or L forms follow the SMILES beside them. pGlu = O=C1CC[C@@H](C(=O)O)N1; Thz = O=C(O)[C@@H]1CSCN1

Experiments:
[1] = The drug is tested on Clostridium ramosum strain: DSM1402 for biotransformation. The drug concentrations were measured before and after a 12-h incubation by liquid-chromatography-coupled mass spectrometry (LC–MS); conditions: thomasclavelia ramosa, 2 µM
[2] = The drug is tested on Dorea formicigenerans strain: ATCC27755 for biotransformation. The drug concentrations were measured before and after a 12-h incubation by liquid-chromatography-coupled mass spectrometry (LC–MS); conditions: 2 µM
[3] = The drug is tested on Bacteroides sp. WH2 strain: WH2 for biotransformation. The drug concentrations were measured before and after a 12-h incubation by liquid-chromatography-coupled mass spectrometry (LC–MS); conditions: bacteroides sp. wh2, 12 h, 2 µM
[4] = The drug is tested on Edwardsiella tarda strain: ATCC23685 for biotransformation. The drug concentrations were measured before and after a 12-h incubation by liquid-chromatography-coupled mass spectrometry (LC–MS); conditions: 2 µM
[5] = The drug is tested on Blautia luti strain: DSM14534 for biotransformation. The drug concentrations were measured before and after a 12-h incubation by liquid-chromatography-coupled mass spectrometry (LC–MS); assay type: ADME; set-up: dose 2 uM, timepoint 0 vs 12 hours; conditions: 2 µM
[6] = The drug is tested on Bacteroides pectinophilus strain: ATCC43243 for biotransformation. The drug concentrations were measured before and after a 12-h incubation by liquid-chromatography-coupled mass spectrometry (LC–MS); conditions: 2 µM
[7] = The drug is tested on Subdoligranulum variabile strain: DSM15176 for biotransformation. The drug concentrations were measured before and after a 12-h incubation by liquid-chromatography-coupled mass spectrometry (LC–MS); conditions: 2 µM
[8] = The drug is tested on Bacteroides coprophilus strain: DSM18228 for biotransformation. The drug concentrations were measured before and after a 12-h incubation by liquid-chromatography-coupled mass spectrometry (LC–MS); conditions: 2 µM
[9] = The drug is tested on Blautia hansenii strain: DSM20583 for biotransformation. The drug concentrations were measured before and after a 12-h incubation by liquid-chromatography-coupled mass spectrometry (LC–MS); conditions: 2 µM
[10] = bacteroides thetaiotaomicron, 12 h, 2 µM
Description: The drug is tested on Bacteroides thetaiotaomicron strain: VPI-5482 for biotransformation. The drug concentrations were measured before and after a 12-h incubation by liquid-chromatography-coupled mass spectrometry (LC–MS)

[11] = bacteroides thetaiotaomicron, 12 h, 2 µM; remark: listed apart in the source
Description: The drug is tested on Bacteroides thetaiotaomicron strain: 3731 for biotransformation. The drug concentrations were measured before and after a 12-h incubation by liquid-chromatography-coupled mass spectrometry (LC–MS)

[12] = The drug is tested on Anaerotruncus colihominis strain: DSM17241 for biotransformation. The drug concentrations were measured before and after a 12-h incubation by liquid-chromatography-coupled mass spectrometry (LC–MS); conditions: 2 µM
[13] = bacteroides fragilis, 12 h, 2 µM
Description: The drug is tested on Bacteroides fragilis strain: 3397 (T10) for biotransformation. The drug concentrations were measured before and after a 12-h incubation by liquid-chromatography-coupled mass spectrometry (LC–MS)

[14] = The drug is tested on Alistipes indistinctus strain: DSM22520 for biotransformation. The drug concentrations were measured before and after a 12-h incubation by liquid-chromatography-coupled mass spectrometry (LC–MS); conditions: 2 µM
[15] = bacteroides fragilis, 12 h, 2 µM; remark: listed apart in the source
Description: The drug is tested on Bacteroides fragilis strain: DS-208 for biotransformation. The drug concentrations were measured before and after a 12-h incubation by liquid-chromatography-coupled mass spectrometry (LC–MS)

[16] = The drug is tested on Collinsella intestinalis strain: DSM13280 for biotransformation. The drug concentrations were measured before and after a 12-h incubation by liquid-chromatography-coupled mass spectrometry (LC–MS); conditions: 2 µM
[17] = The drug is tested on Escherichia coli strain: BW25113 for biotransformation. The drug concentrations were measured before and after a 12-h incubation by liquid-chromatography-coupled mass spectrometry (LC–MS); conditions: 2 µM
[18] = The drug is tested on Eubacterium ventriosum strain: ATCC27560 for biotransformation. The drug concentrations were measured before and after a 12-h incubation by liquid-chromatography-coupled mass spectrometry (LC–MS); assay type: ADME; set-up: dose 2 uM, timepoint 0 vs 12 hours; conditions: 2 µM
[19] = The drug is tested on Bacteroides ovatus strain: ATCC8483 for biotransformation. The drug concentrations were measured before and after a 12-h incubation by liquid-chromatography-coupled mass spectrometry (LC–MS); conditions: 2 µM
[20] = The drug is tested on Bacteroides xylanisolvens strain: DSM18836 for biotransformation. The drug concentrations were measured before and after a 12-h incubation by liquid-chromatography-coupled mass spectrometry (LC–MS); conditions: 2 µM

| SMILES | Bacterial Biotransformation [1] | Bacterial Biotransformation [2] | Bacterial Biotransformation [3] | Bacterial Biotransformation [4] | Bacterial Biotransformation [5] | Bacterial Biotransformation [6] | Bacterial Biotransformation [7] | Bacterial Biotransformation [8] | Bacterial Biotransformation [9] | Bacterial Biotransformation [10] | Bacterial Biotransformation [11] | Bacterial Biotransformation [12] | Bacterial Biotransformation [13] | Bacterial Biotransformation [14] | Bacterial Biotransformation [15] | Bacterial Biotransformation [16] | Bacterial Biotransformation [17] | Bacterial Biotransformation [18] | Bacterial Biotransformation [19] | Bacterial Biotransformation [20] |
| --- | --- | --- | --- | --- | --- | --- | --- | --- | --- | --- | --- | --- | --- | --- | --- | --- | --- | --- | --- | --- |
| CC(=O)OCC(=O)[C@@]1(O)[C@@H](C)C[C@H]2[C@@H]3CCC4=CC(=O)C=C[C@]4(C)[C@@]3(F)[C@@H](O)C[C@@]21C [BETAMETHASONE ACETATE] | Compound NOT metabolized | Compound NOT metabolized | Compound NOT metabolized | Compound NOT metabolized | Compound NOT metabolized | Compound NOT metabolized | Compound NOT metabolized | Compound metabolized | Compound metabolized | Compound metabolized | Compound NOT metabolized | Compound NOT metabolized | Compound metabolized | Compound NOT metabolized | Compound metabolized | Compound NOT metabolized | Compound NOT metabolized | Compound NOT metabolized |  |  |
| CN1C(C(=O)Nc2ccccn2)=C(O)c2sccc2S1(=O)=O [TENOXICAM] | Compound NOT metabolized | Compound NOT metabolized |  | Compound NOT metabolized | Compound NOT metabolized | Compound NOT metabolized | Compound NOT metabolized |  | Compound NOT metabolized | Compound NOT metabolized | Compound NOT metabolized |  | Compound NOT metabolized | Compound NOT metabolized |  | Compound NOT metabolized | Compound NOT metabolized | Compound NOT metabolized | Compound NOT metabolized |  |
| O=c1[nH]c2ccccc2n1C1CCN(CCCC(c2ccc(F)cc2)c2ccc(F)cc2)CC1 [PIMOZIDE] | Compound NOT metabolized | Compound NOT metabolized | Compound NOT metabolized | Compound NOT metabolized | Compound NOT metabolized | Compound NOT metabolized | Compound NOT metabolized | Compound NOT metabolized | Compound NOT metabolized | Compound NOT metabolized | Compound NOT metabolized | Compound metabolized | Compound NOT metabolized | Compound NOT metabolized | Compound NOT metabolized | Compound NOT metabolized |  | Compound NOT metabolized | Compound NOT metabolized | Compound NOT metabolized |
| CC(C)c1nc(CN(C)C(=O)N[C@H](C(=O)N[C@@H](Cc2ccccc2)C[C@H](O)[C@H](Cc2ccccc2)NC(=O)OCc2cncs2)C(C)C)cs1 [RITONAVIR] | Compound NOT metabolized | Compound NOT metabolized | Compound NOT metabolized | Compound NOT metabolized |  | Compound NOT metabolized | Compound NOT metabolized | Compound NOT metabolized | Compound metabolized | Compound NOT metabolized | Compound NOT metabolized | Compound NOT metabolized | Compound NOT metabolized | Compound NOT metabolized | Compound metabolized | Compound NOT metabolized | Compound metabolized | Compound NOT metabolized | Compound NOT metabolized | Compound metabolized |
| Nc1nc2ccc(OC(F)(F)F)cc2s1 [RILUZOLE] | Compound NOT metabolized | Compound NOT metabolized | Compound NOT metabolized | Compound NOT metabolized |  | Compound NOT metabolized | Compound NOT metabolized | Compound NOT metabolized | Compound metabolized | Compound metabolized | Compound NOT metabolized | Compound NOT metabolized | Compound NOT metabolized | Compound NOT metabolized | Compound metabolized | Compound NOT metabolized |  |  | Compound NOT metabolized | Compound metabolized |
| O=C1CC[C@@H](C(=O)N2CSC[C@H]2C(=O)O)N1 [PIDOTIMOD] ([pGlu]-[Thz]-OH) | Compound NOT metabolized | Compound NOT metabolized | Compound NOT metabolized | Compound NOT metabolized | Compound NOT metabolized | Compound NOT metabolized | Compound NOT metabolized | Compound metabolized | Compound metabolized | Compound metabolized |  | Compound NOT metabolized | Compound metabolized | Compound NOT metabolized | Compound metabolized | Compound NOT metabolized | Compound NOT metabolized | Compound NOT metabolized | Compound metabolized |  |
| Cc1ccc(-c2nc3ccc(C)cn3c2CC(=O)N(C)C)cc1 [ZOLPIDEM] | Compound NOT metabolized | Compound NOT metabolized | Compound NOT metabolized | Compound NOT metabolized | Compound NOT metabolized | Compound NOT metabolized | Compound NOT metabolized |  | Compound NOT metabolized |  | Compound NOT metabolized | Compound NOT metabolized | Compound NOT metabolized | Compound NOT metabolized | Compound NOT metabolized | Compound NOT metabolized | Compound NOT metabolized | Compound NOT metabolized |  |  |
| C[C@@H](c1ncncc1F)[C@](O)(Cn1cncn1)c1ccc(F)cc1F [VORICONAZOLE] | Compound NOT metabolized | Compound NOT metabolized | Compound NOT metabolized | Compound NOT metabolized | Compound NOT metabolized | Compound NOT metabolized | Compound NOT metabolized |  | Compound NOT metabolized |  |  | Compound NOT metabolized | Compound metabolized | Compound NOT metabolized | Compound metabolized | Compound NOT metabolized | Compound NOT metabolized | Compound NOT metabolized | Compound NOT metabolized | Compound metabolized |
